Measured values reported in US12128035B2, “Activating pyruvate kinase R” (Novo Nordisk Health Care AG, priority 2021, dated 2024).

Test system: ATP blood levels
Test: Phase 1 SAD/MAD: blood ATP (LC-MS/MS) in healthy volunteers
Assay type: in vivo, human
Procedure: In this study, SAD/MAD cohorts are randomized (3 to 1) to receive Compound 1 or placebo (P). Compound 1 was evaluated first in 4 healthy SAD cohorts and 4 healthy MAD (14-day dosing period) cohorts. Based on the safety, and PK/PD profile from HS, Compound 1 is then evaluated in 1 SCD SAD cohort and 2 SCD MAD cohorts. Specifically, based on the safety and pharmacokinetic/pharmacodynamics (PK/PD) profile in healthy volunteer studies, Compound 1 is evaluated in patients (pts) with SCD, first in a single dose (SD or SAD) cohort and then in multiple-dose (MD or MAD) cohorts (14-day and 12-week). Safety assessments include AEs, vital signs, ECGs and laboratory parameters. PK/PD blood sampling was performed on Day 1 (SAD/MAD) and Day 14 (MAD) and up to 72 h after the last dose and at the end-of-study visit. PD parameters included 2,3-DPG, ATP, and p50 in all cohorts with additional PD studies (including oxygen scan) performed only in the SCD cohorts. PD parameters included 2,3-DPG, ATP, p50, RBC deformability with controlled deoxygenation and reoxygenation (Lorrca® oxygen scan) and varying osmolality (Lorrca® osmoscan)). To maintain study blind, pt identifiers were removed when needed.
In the MAD cohorts, the subjects' blood ATP levels were measured […] by a qualified LC-MS/MS method for the quantitation of ATP in blood. […] Table 20A reports the median percentage change in blood ATP levels, relative to baseline, measured over time after the first dose on days 1 and 14 in healthy volunteers who received daily doses of Compound 1 (100 mg BID, 200 mg BID, 300 mg BID, or 400 mg QD) or placebo for 14 days. Table 20B reports the mean percentage change in ATP blood levels, relative to baseline, measured over time after the first dose on days 1 and 14 in healthy volunteers who received daily doses of Compound 1 (100 mg BID, 200 mg BID, 300 mg BID, or 400 mg QD) for 14 days.
The following procedures are employed for the analysis of ATP and 2,3-DPG in human whole blood K2EDTA using a protein precipitation extraction procedure and analysis by LC-MS/MS.
The following procedures are used for sample extraction prior to analysis via LC-MS/MS. 15.0 μL of the calibration standards, quality controls, matrix blanks, and samples are aliquoted into a 96-well plate. 50.0 μL of the internal standard spiking solution is added to all samples on the plate, with the exception of the matrix blank samples; 50.0 μL of water is added to the matrix blank samples. Subsequently, 150 μL of water is added to all samples on the plate. The plate is then covered and agitated by vortex at high speed for ten minutes, after which 750 μL of methanol is added to all samples on the plate. The plate is covered and agitated by vortex for approximately 1 minute. The plate is then centrifuged at approximately 3500 RPM at approximately 4° C. for five minutes. After centrifugation, a liquid handler is used to transfer 50 μL of each sample to a new 96-well plate, and 200 μL of acetonitrile is added to all samples on the plate. The newly prepared plate is covered and agitated by vortex for approximately 1 minute. The plate is then centrifuged at approximately 3500 RPM at approximately 4° C. for 2 minutes.

[1] = HV 100 mg BID, Day 1, 0 h after first daily dose
[2] = HV 100 mg BID, Day 1, 6 h after first daily dose
[3] = HV 100 mg BID, Day 1, 8 h after first daily dose
[4] = HV 100 mg BID, Day 1, 12 h after first daily dose
[5] = HV 100 mg BID, Day 1, 16 h after first daily dose
[6] = HV 100 mg BID, Day 1, 24 h after first daily dose
[7] = HV 100 mg BID, Day 14, 0 h after first daily dose
[8] = HV 100 mg BID, Day 14, 6 h after first daily dose
[9] = HV 100 mg BID, Day 14, 8 h after first daily dose
[10] = HV 100 mg BID, Day 14, 12 h after first daily dose
[11] = HV 100 mg BID, Day 14, 16 h after first daily dose
[12] = HV 100 mg BID, Day 14, 24 h after first daily dose
[13] = HV 100 mg BID, Day 14, 48 h after first daily dose
[14] = HV 100 mg BID, Day 14, 72 h after first daily dose
[15] = HV 200 mg BID, Day 1, 0 h after first daily dose
[16] = HV 200 mg BID, Day 1, 6 h after first daily dose
[17] = HV 200 mg BID, Day 1, 8 h after first daily dose
[18] = HV 200 mg BID, Day 1, 12 h after first daily dose
[19] = HV 200 mg BID, Day 1, 16 h after first daily dose
[20] = HV 200 mg BID, Day 1, 24 h after first daily dose
[21] = HV 200 mg BID, Day 14, 0 h after first daily dose
[22] = HV 200 mg BID, Day 14, 6 h after first daily dose
[23] = HV 200 mg BID, Day 14, 8 h after first daily dose
[24] = HV 200 mg BID, Day 14, 12 h after first daily dose
[25] = HV 200 mg BID, Day 14, 16 h after first daily dose
[26] = HV 200 mg BID, Day 14, 24 h after first daily dose
[27] = HV 200 mg BID, Day 14, 48 h after first daily dose
[28] = HV 200 mg BID, Day 14, 72 h after first daily dose
[29] = HV 300 mg BID, Day 1, 0 h after first daily dose
[30] = HV 300 mg BID, Day 1, 6 h after first daily dose
[31] = HV 300 mg BID, Day 1, 8 h after first daily dose
[32] = HV 300 mg BID, Day 1, 12 h after first daily dose
[33] = HV 300 mg BID, Day 1, 16 h after first daily dose
[34] = HV 300 mg BID, Day 1, 24 h after first daily dose
[35] = HV 300 mg BID, Day 14, 0 h after first daily dose
[36] = HV 300 mg BID, Day 14, 6 h after first daily dose
[37] = HV 300 mg BID, Day 14, 8 h after first daily dose
[38] = HV 300 mg BID, Day 14, 12 h after first daily dose
[39] = HV 300 mg BID, Day 14, 16 h after first daily dose
[40] = HV 300 mg BID, Day 14, 24 h after first daily dose
[41] = HV 300 mg BID, Day 14, 48 h after first daily dose
[42] = HV 300 mg BID, Day 14, 72 h after first daily dose
[43] = HV 400 mg QD, Day 1, 0 h after first daily dose
[44] = HV 400 mg QD, Day 1, 6 h after first daily dose
[45] = HV 400 mg QD, Day 1, 8 h after first daily dose
[46] = HV 400 mg QD, Day 1, 12 h after first daily dose

O=C([C@H](CO)c1ccccc1)N1CC2=C(C1)CN(S(=O)(=O)c1cnc3c(c1)OCCO3)C2 (single isomer, unassigned) [Compound 1]
Mean Percentage Change in ATP Levels [1]: 0%
Median Percentage Change in ATP Levels [1]: 0%
Mean Percentage Change in ATP Levels [2]: −5.6%
Median Percentage Change in ATP Levels [2]: −5.7%
Mean Percentage Change in ATP Levels [3]: −2.0%
Median Percentage Change in ATP Levels [3]: 0.0%
Mean Percentage Change in ATP Levels [4]: −0.6%
Median Percentage Change in ATP Levels [4]: −1.2%
Mean Percentage Change in ATP Levels [5]: 1.9%
Median Percentage Change in ATP Levels [5]: 3.3%
Mean Percentage Change in ATP Levels [6]: 4.4%
Median Percentage Change in ATP Levels [6]: 5.7%
Mean Percentage Change in ATP Levels [7]: 49%
Median Percentage Change in ATP Levels [7]: 42%
Mean Percentage Change in ATP Levels [8]: 45%
Median Percentage Change in ATP Levels [8]: 44%
Mean Percentage Change in ATP Levels [9]: 49%
Median Percentage Change in ATP Levels [9]: 48%
Mean Percentage Change in ATP Levels [10]: 45%
Median Percentage Change in ATP Levels [10]: 45%
Mean Percentage Change in ATP Levels [11]: 47%
Median Percentage Change in ATP Levels [11]: 45%
Mean Percentage Change in ATP Levels [12]: 55%
Median Percentage Change in ATP Levels [12]: 55%
Mean Percentage Change in ATP Levels [13]: 51%
Median Percentage Change in ATP Levels [13]: 52%
Mean Percentage Change in ATP Levels [14]: 47%
Median Percentage Change in ATP Levels [14]: 49%
Mean Percentage Change in ATP Levels [15]: 0%
Median Percentage Change in ATP Levels [15]: 0%
Mean Percentage Change in ATP Levels [16]: 1.7%
Median Percentage Change in ATP Levels [16]: −4.3%
Mean Percentage Change in ATP Levels [17]: 4.7%
Median Percentage Change in ATP Levels [17]: 5.4%
Mean Percentage Change in ATP Levels [18]: 6.7%
Median Percentage Change in ATP Levels [18]: 4.3%
Mean Percentage Change in ATP Levels [19]: 5.6%
Median Percentage Change in ATP Levels [19]: 6.0%
Mean Percentage Change in ATP Levels [20]: −0.2%
Median Percentage Change in ATP Levels [20]: 1.1%
Mean Percentage Change in ATP Levels [21]: 59%
Median Percentage Change in ATP Levels [21]: 62%
Mean Percentage Change in ATP Levels [22]: 50%
Median Percentage Change in ATP Levels [22]: 48%
Mean Percentage Change in ATP Levels [23]: 56%
Median Percentage Change in ATP Levels [23]: 58%
Mean Percentage Change in ATP Levels [24]: 56%
Median Percentage Change in ATP Levels [24]: 56%
Mean Percentage Change in ATP Levels [25]: 53%
Median Percentage Change in ATP Levels [25]: 57%
Mean Percentage Change in ATP Levels [26]: 66%
Median Percentage Change in ATP Levels [26]: 65%
Mean Percentage Change in ATP Levels [27]: 62%
Median Percentage Change in ATP Levels [27]: 70%
Mean Percentage Change in ATP Levels [28]: 57%
Median Percentage Change in ATP Levels [28]: 54%
Mean Percentage Change in ATP Levels [29]: 0%
Median Percentage Change in ATP Levels [29]: 0%
Mean Percentage Change in ATP Levels [30]: −4.5%
Median Percentage Change in ATP Levels [30]: −7.6%
Mean Percentage Change in ATP Levels [31]: −2.0%
Median Percentage Change in ATP Levels [31]: −2.4%
Mean Percentage Change in ATP Levels [32]: −0.6%
Median Percentage Change in ATP Levels [32]: 0.9%
Mean Percentage Change in ATP Levels [33]: −0.5%
Median Percentage Change in ATP Levels [33]: −1.1%
Mean Percentage Change in ATP Levels [34]: 2.2%
Median Percentage Change in ATP Levels [34]: 1.8%
Mean Percentage Change in ATP Levels [35]: 46%
Median Percentage Change in ATP Levels [35]: 46%
Mean Percentage Change in ATP Levels [36]: 51%
Median Percentage Change in ATP Levels [36]: 51%
Mean Percentage Change in ATP Levels [37]: 52%
Median Percentage Change in ATP Levels [37]: 50%
Mean Percentage Change in ATP Levels [38]: 49%
Median Percentage Change in ATP Levels [38]: 51%
Mean Percentage Change in ATP Levels [39]: 52%
Median Percentage Change in ATP Levels [39]: 53%
Mean Percentage Change in ATP Levels [40]: 56%
Median Percentage Change in ATP Levels [40]: 52%
Mean Percentage Change in ATP Levels [41]: 57%
Median Percentage Change in ATP Levels [41]: 58%
Mean Percentage Change in ATP Levels [42]: 48%
Median Percentage Change in ATP Levels [42]: 49%
Mean Percentage Change in ATP Levels [43]: 0%
Median Percentage Change in ATP Levels [43]: 0%
Mean Percentage Change in ATP Levels [44]: −1.2%
Median Percentage Change in ATP Levels [44]: −1.7%
Mean Percentage Change in ATP Levels [45]: −2.9%
Median Percentage Change in ATP Levels [45]: −4.5%
Mean Percentage Change in ATP Levels [46]: 2.4%
Median Percentage Change in ATP Levels [46]: 3.5%
Mean Percentage Change in ATP Levels (HV 400 mg QD, Day 1, 16 h after first daily dose): −2.2%
